# In paper PMC3104272 (Journal of medicinal chemistry, 2011):
# Read-outs that look alike come from different tables or passages of the source.
# How the values were obtained:
# Solubility estimates = format: physicochemical; settings: for Solubility pH 2.0: 0.01M HCl (approximately pH 2.0)
# Falcipain 2 = molecular target: T1, Falcipain 2 (Plasmodium falciparum, UniProt Q8I6U4); test: Falcipain 2 inhibition assay; format: biochemical; settings: averages of duplicate determinations
# T1 sequence (Q8I6U4 244-484): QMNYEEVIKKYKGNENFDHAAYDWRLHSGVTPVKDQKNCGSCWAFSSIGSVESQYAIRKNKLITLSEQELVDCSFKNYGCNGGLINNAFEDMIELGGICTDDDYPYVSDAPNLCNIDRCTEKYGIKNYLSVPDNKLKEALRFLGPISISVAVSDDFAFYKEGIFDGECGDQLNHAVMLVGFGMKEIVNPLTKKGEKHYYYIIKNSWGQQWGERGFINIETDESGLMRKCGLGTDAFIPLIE
# [1] = tested on: Chinese Hamster Ovarian (mammalian) cell line; settings: previously reported finding; cited from earlier work
# [2] = NADPH and UDPGA relative to NADPH alone; putative P + 176 metabolite
# [3] = In vitro metabolic stability, human liver microsomes; format: in vitro ADME; settings: calculated hepatic extraction ratio
# [4] = In vitro metabolic stability, mouse liver microsomes; format: in vitro ADME; settings: calculated hepatic extraction ratio
# [5] = tested on: P. falciparum chloroquine sensitive strain D10; test: In vitro antiplasmodial activity, D10 strain; format: cell-based; settings: Plasmodium falciparum, D10, read-out: IC50, D10
# [6] = tested on: P. falciparum chloroquine resistant strain Dd2; test: In vitro antiplasmodial activity, Dd2 strain; format: cell-based; settings: Plasmodium falciparum, DD2, read-out: IC50, Dd2
# [7] = tested on: P. falciparum chloroquine resistant strain W2; test: In vitro antiplasmodial activity, W2 strain; format: cell-based; settings: Plasmodium falciparum, W2, read-out: IC50, W2
# [8] = tested on: Chinese Hamster Ovarian (mammalian) cell line; test: Cytotoxicity against Chinese Hamster Ovarian cell line; format: cell-based; settings: highest concentration (100 µM) tested
smiles,measurement,setting,value
COc1ccc(C(=O)/C=C/c2ccc(OCc3cn(-c4ccnc5cc(Cl)ccc45)nn3)c(OC)c2)c(OC)c1 [Compound 8b],Solubility pH 2.0,Solubility estimates; 1% DMSO,no increase in solubility under acidic conditions
same,Falcipain 2 (IC50),Falcipain 2,lower micromolar IC50 values
same,Cytotoxicity,[1],No cytotoxicity was observed
same,Primary glucuronidation,[2],no major increase in the rate of degradation
"COc1ccc(C(=O)/C=C/c2ccc(OCCNc3ccnc4cc(Cl)ccc34)c(OC)c2)c(OC)c1 [Compound 21, 3-{4-[2-(7-Chloro-quinolin-4-ylamino)-ethoxy]-3-methoxy-phenyl}-1-(2,4-dimethoxy-phenyl)-propenone]","Microsome-Predicted Extraction ratio (EH), Human",[3],0.85
same,"Microsome-Predicted Extraction ratio (EH), Mouse",[4],0.86
same,solubility,"Solubility estimates; phosphate buffer, pH 6.5",3.1 to 6.3 µg/mL
same,Falcipain 2 (IC50),Falcipain 2,lower micromolar IC50 values
same,Primary glucuronidation,[2],no major increase in the rate of degradation
CCN(CC)CCCC(C)Nc1ccnc2cc(Cl)ccc12 (stereo not drawn) [Chloroquine],IC50,[5],17 nM
same,IC50,[6],97 nM
same,IC50,[7],69 nM
same,Primary glucuronidation,[2],no major increase in the rate of degradation
"COc1cc(/C=C/C(C)=O)ccc1OCCNc1ccnc2cc(Cl)ccc12 [Compound 20, 4-{4-[2-(7-Chloro-quinolin-4-ylamino)-ethoxy]-3-methoxy-phenyl}-but-3-en-2-one]","Microsome-Predicted Extraction ratio (EH), Human",[3],0.90
same,"Microsome-Predicted Extraction ratio (EH), Mouse",[4],0.85
same,solubility,"Solubility estimates; 0.01M HCl, pH 2",50 to 100 µg/mL
same,Solubility pH 6.5,"Solubility estimates; pH 6.5 phosphate buffer, 1% DMSO",moderate solubility
same,solubility,"Solubility estimates; phosphate buffer, pH 6.5",6.3 to 12.5 µg/mL
same,Falcipain 2 (IC50),Falcipain 2,relatively low potencies
same,Primary glucuronidation,[2],no major increase in the rate of degradation
"COc1ccc(C(=O)/C=C/c2ccc(O)c(CN3CCN(c4ccnc5cc(Cl)ccc45)CC3)c2)c(OC)c1 [Compound 27, 3-{3-[4-(7-Chloro-quinolin-4-yl)-piperazin-1-ylmethyl]-4-hydroxy-phenyl}-1-(2,4-dimethoxy-phenyl)-propenone]",Falcipain 2 (IC50),Falcipain 2,lower micromolar IC50 values
same,Cytotoxicity,[8],No cytotoxicity was observed
"COc1ccc(C(=O)/C=C/c2ccc(OCCN3CCN(c4ccnc5cc(Cl)ccc45)CC3)c(OC)c2)c(OC)c1 [Compound 23, 3-(4-{2-[4-(7-Chloro-quinolin-4-yl)-piperazin-1-yl]-ethoxy}-3-methoxy-phenyl)-1-(2,4-dimethoxy-phenyl)-propenone]",Falcipain 2 (IC50),Falcipain 2,lower micromolar IC50 values
same,Primary glucuronidation,[2],no major increase in the rate of degradation
"COc1cc(/C=C/C(C)=O)cc(CN2CCN(c3ccnc4cc(Cl)ccc34)CC2)c1O [Compound 24, 4-{3-[4-(7-Chloro-quinolin-4-yl)-piperazin-1-ylmethyl]-4-hydroxy-5-methoxyphenyl}-but-3-en-2-one]","Microsome-Predicted Extraction ratio (EH), Human",[3],0.85
same,"Microsome-Predicted Extraction ratio (EH), Mouse",[4],0.84
same,solubility,"Solubility estimates; phosphate buffer, pH 6.5",1.6 to 3.1 µg/mL
same,Falcipain 2 (IC50),Falcipain 2,relatively low potencies
COc1cc(/C=C/C(C)=O)ccc1OCc1cn(-c2ccnc3cc(Cl)ccc23)nn1 [Compound 12],Solubility pH 2.0,Solubility estimates; 1% DMSO,no increase in solubility under acidic conditions
same,solubility,"Solubility estimates; 0.01M HCl, pH 2",3.1 to 6.3 µg/mL
same,solubility,"Solubility estimates; phosphate buffer, pH 6.5",3.1 to 6.3 µg/mL
same,Primary glucuronidation,[2],no putative metabolites detected with molecular weights consistent with glucuronidation
"COc1ccc(C(=O)/C=C/c2cc(CN3CCN(c4ccnc5cc(Cl)ccc45)CC3)c(O)c(OC)c2)c(OC)c1 [Compound 25, 3-{3-[4-(7-Chloro-quinolin-4-yl)-piperazin-1-ylmethyl]-4-hydroxy-5-methoxyphenyl}-1-(2,4-dimethoxy-phenyl)-propenone]","Microsome-Predicted Extraction ratio (EH), Human",[3],0.72
same,"Microsome-Predicted Extraction ratio (EH), Mouse",[4],0.87
same,Falcipain 2 (IC50),Falcipain 2,lower micromolar IC50 values
same,Cytotoxicity,[8],No cytotoxicity was observed
"COc1cc(/C=C/C(C)=O)ccc1OCCN1CCN(c2ccnc3cc(Cl)ccc23)CC1 [Compound 22, 4-(4-{2-[4-(7-Chloro-quinolin-4-yl)-piperazin-1-yl]-ethoxy}-3-methoxy-phenyl)-but-3-en-2-one]",solubility,"Solubility estimates; phosphate buffer, pH 6.5",1.6 to 3.1 µg/mL
same,Falcipain 2 (IC50),Falcipain 2,relatively low potencies
same,Primary glucuronidation,[2],no putative metabolites detected with molecular weights consistent with glucuronidation
"CC(=O)/C=C/c1ccc(O)c(CN2CCN(c3ccnc4cc(Cl)ccc34)CC2)c1 [Compound 26, 4-{3-[4-(7-Chloro-quinolin-4-yl)-piperazin-1-ylmethyl]-4-hydroxy-phenyl}-but-3-en-2-one]","Microsome-Predicted Extraction ratio (EH), Human",[3],0.93
same,"Microsome-Predicted Extraction ratio (EH), Mouse",[4],0.84
same,Falcipain 2 (IC50),Falcipain 2,lower micromolar IC50 values
